These results are taken from PMC8881610 (Nature Communications, 2022).

Experiment [1] concerns the target T1, GIPR (Homo sapiens, UniProt P48546, E135A).
T1 sequence (P48546 22-466 E135A): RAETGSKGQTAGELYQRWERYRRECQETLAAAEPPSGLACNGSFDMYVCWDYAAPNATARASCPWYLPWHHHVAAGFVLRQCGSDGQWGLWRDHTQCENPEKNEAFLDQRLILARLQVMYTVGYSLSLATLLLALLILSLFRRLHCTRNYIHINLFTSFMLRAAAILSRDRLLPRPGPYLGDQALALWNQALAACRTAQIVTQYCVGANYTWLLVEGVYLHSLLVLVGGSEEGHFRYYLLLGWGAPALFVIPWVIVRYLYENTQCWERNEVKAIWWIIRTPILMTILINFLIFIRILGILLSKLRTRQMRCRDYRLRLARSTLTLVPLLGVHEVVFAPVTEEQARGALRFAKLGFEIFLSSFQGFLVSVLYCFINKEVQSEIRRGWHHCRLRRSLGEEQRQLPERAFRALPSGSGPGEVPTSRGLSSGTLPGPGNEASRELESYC
The experiment in a line: Whole-cell binding assay, competition with 125I-GIP1-42. The note with it: GIPR E135A, CHO-K1. More on the design: acylated tirzepatide to the full-length or modified; Flag; expressed in transfected cells. The procedure, abridged:
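Transiently transfected CHO-K1 cells expressing WT or mutant GIPR were washed in F-12 with 0.1% BSA or 0.1% casein and 33 mM HEPES, then incubated 2 h at 37 °C. After ice-cold PBS washes, cells were lysed and bound radioactivity counted (CPM).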

The target of experiment [2] is T2, GIPR (Homo sapiens, UniProt P48546, W90A).
T2 sequence (P48546 22-466 W90A): T1 sequence (P48546 22-466 E135A) with W69A, A114E
In words: cAMP accumulation assay (LANCE Ultra cAMP kit), GIPR WT, mutant or modified constructs. The class given is cell-based. Further details: acylated tirzepatide to the full-length or modified; Flag; expressed in transfected cells; host or cells: HEK293T. The following applies: HEK-293T, GIPR W90A; HEK293T. In a few lines:
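HEK293T cells transiently transfected with human GIPR WT or mutant constructs (pcDNA3.1), used after 24 h. The cells were stimulated with peptide agonists for 40 min at RT in HBSS with 5 mM HEPES, 0.1% BSA or casein, and 0.5 mM IBMX. cAMP was read by LANCE Ultra TR-FRET (Eu-cAMP tracer/ULight anti-cAMP, 1 h RT, 620/650 nm).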
A general note: cAMP levels reflect the balance of adenylyl cyclase and phosphodiesterase activity.

The structures appear in SMILES notation. Numbering of substitutions follows the chain as printed.

Broadly, the Emax is the greatest response seen or fitted, relative to the assay's reference. On to `CCCCCCCCCCCCCCCC(=O)N[C@@H](CCC(=O)NCCCC[C@H](NC(=O)[C@H](CC(=O)O)NC(=O)[C@H](CO)NC(=O)[C@@H](NC(=O)[C@H](Cc1ccccc1)NC(=O)[C@@H](NC(=O)CNC(=O)[C@H](CCC(N)=O)NC(=O)C(C)(C)NC(=O)[C@@H](N)Cc1c[nH]cn1)[C@@H](C)O)[C@@H](C)O)C(=O)N[C@@H](CO)C(=O)N[C@@H](CCCCN)C(=O)N[C@@H](Cc1ccc(O)cc1)C(=O)N[C@@H](CC(C)C)C(=O)N[C@@H](CC(=O)O)C(=O)N[C@@H](CCC(=O)O)C(=O)N[C@@H](CCCNC(=N)N)C(=O)N[C@@H](C)C(=O)N[C@@H](C)C(=O)N[C@@H](CCC(N)=O)C(=O)N[C@@H](CC(=O)O)C(=O)N[C@@H](Cc1ccccc1)C(=O)N[C@H](C(=O)N[C@@H](CCC(N)=O)C(=O)N[C@@H](Cc1c[nH]c2ccccc12)C(=O)N[C@@H](CC(C)C)C(=O)N[C@@H](CC(C)C)C(=O)N[C@@H](CC(=O)O)C(=O)NCC(=O)NCC(=O)N1CCC[C@H]1C(=O)N[C@@H](CO)C(=O)N[C@@H](CO)C(=O)NCC(=O)N[C@@H](C)C(=O)N1CCC[C@H]1C(=O)N1CCC[C@H]1C(=O)N1CCC[C@H]1C(=O)N[C@@H](CO)C(N)=O)C(C)C)C(=O)O` [Peptide 20], for which the “binding Span” value at GIPR [1] is on record as 64.00 ± 2.46 % WT. Further, at GIPR [1] (read-out: binding pIC50 (converted)), the IC50 was 5.62 nM. This molecule returned an Emax at GIPR [2] of 98 ± 4.59%.
